Laboratory results taken from patent US9458092B2, “α-Substituted glycinamide derivative” (KISSEI PHARMACEUTICAL CO., LTD., priority 2013, dated 2016).

Biological target: TRPM8 (Rattus norvegicus, UniProt Q8R455)
Assay: Confirmation test of inhibitory effects on icilin-induced wet-dog shakes
Format: in vivo, female SD rats
Design: test compounds were orally administered to female SD rats; from tissue; host or cells: whole animal (female SD rats), endogenous channel
Settings: icilin 1 mg/kg i.p. after 1 hour, shakes counted for 5 minutes
Protocol: Test compounds were dissolved in dimethylacetamide (wako), and 0.5% methylcellulose solution (wako) was added to make the solution or suspension containing 5% of dimethylacetamide. At a dose of 3 or 10 mg/kg/5 mL of test compounds were orally administered to female SD rats. After 1 hour, wet-dog shakes were induced by the intrapenitoneal injection of icilin (1 mg/kg) which was dissolved in polyethylene glycol 400 (wako). From 5 minutes after the administration of icilin, wet-dog shakes were counted for 5 minutes. For control example, vehicle (a mixture of dimethylacetamide (wako): 0.5% methylcellulose (wako)=5:95) was administrated similarly, and the number of wet-dog shakes was counted in the same manner. A percent inhibition of wet-dog shakes by test compound was calculated from the following formula: [1-(test compound wet-dog shake count/vehicle wet-dog shake count)]×100.

Chain of TRPM8 (Q8R455 whole entry): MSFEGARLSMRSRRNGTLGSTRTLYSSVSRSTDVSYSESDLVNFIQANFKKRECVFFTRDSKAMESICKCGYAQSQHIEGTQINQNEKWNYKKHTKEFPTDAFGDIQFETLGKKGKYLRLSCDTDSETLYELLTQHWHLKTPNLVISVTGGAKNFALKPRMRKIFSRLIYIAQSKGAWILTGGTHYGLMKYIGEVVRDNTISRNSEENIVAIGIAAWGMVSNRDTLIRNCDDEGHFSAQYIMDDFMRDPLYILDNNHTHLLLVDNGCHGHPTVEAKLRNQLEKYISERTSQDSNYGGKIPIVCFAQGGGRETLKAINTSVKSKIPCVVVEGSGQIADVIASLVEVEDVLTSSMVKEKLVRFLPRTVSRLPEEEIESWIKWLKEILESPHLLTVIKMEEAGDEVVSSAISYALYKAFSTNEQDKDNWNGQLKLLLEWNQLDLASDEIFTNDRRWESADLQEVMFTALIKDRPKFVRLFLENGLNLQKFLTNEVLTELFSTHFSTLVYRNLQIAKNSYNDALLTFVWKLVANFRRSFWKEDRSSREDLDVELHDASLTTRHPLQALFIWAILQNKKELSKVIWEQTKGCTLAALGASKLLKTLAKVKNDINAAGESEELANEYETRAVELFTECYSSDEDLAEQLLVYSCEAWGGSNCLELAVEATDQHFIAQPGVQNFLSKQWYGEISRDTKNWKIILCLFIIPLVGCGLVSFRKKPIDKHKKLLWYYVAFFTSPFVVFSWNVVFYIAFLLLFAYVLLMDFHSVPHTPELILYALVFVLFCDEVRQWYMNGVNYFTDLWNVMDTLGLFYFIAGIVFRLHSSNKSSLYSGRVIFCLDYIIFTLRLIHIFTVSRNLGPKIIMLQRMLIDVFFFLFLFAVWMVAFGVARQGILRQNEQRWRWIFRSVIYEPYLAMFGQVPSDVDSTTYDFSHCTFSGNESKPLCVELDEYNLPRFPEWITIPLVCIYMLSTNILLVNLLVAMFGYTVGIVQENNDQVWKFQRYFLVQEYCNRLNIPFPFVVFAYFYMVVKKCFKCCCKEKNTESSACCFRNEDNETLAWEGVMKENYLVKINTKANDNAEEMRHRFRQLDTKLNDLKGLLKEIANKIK

Structure (SMILES)	% inhibition of Wet-Dog Shake (dose 3 mg/kg orally) [%]	% inhibition of Wet-Dog Shake (dose 10 mg/kg orally) [%]
COc1ccc2c(c1)[C@H](N(C(=O)c1cccnc1)[C@@H](C(N)=O)c1ccccc1)CC2 [Example 1-6, N-[(R)-Carbamoylphenylmethyl]-N-[(R)-6-methoxyindan-1-yl]nicotinamide]	–	64
NC(=O)[C@@H](c1ccccc1)N(C(=O)c1ccccc1)[C@@H]1CCc2ccc(OC(F)F)cc21 [Example 2-11LP, N-[(R)-carbamoylphenylmethyl]-N-[(R)-6-difluoromethoxyindan-1-yl]benzamide]	–	85
NC(=O)[C@@H](c1ccccc1)N(C(=O)c1cccnc1)[C@@H]1CCc2ccc(OC(F)F)cc21 [Example 2-26LP, N-[(R)-carbamoylphenylmethyl]-N-[(R)-6-difluoromethoxyindan-1-yl]nicotinamide]	–	83
NC(=O)[C@@H](c1ccccc1)N(C(=O)c1cccnc1N)[C@@H]1CCc2ccc(OC(F)F)cc21 [Example 2-27LP, 2-amino-N-[(R)-carbamoylphenylmethyl]-N-[(R)-6-difluoromethoxyindan-1-yl]nicotinamide]	–	95
NC(=O)[C@@H](c1ccccc1)N(C(=O)c1cccnc1N)[C@@H]1CCc2ccc(Cl)cc21 [Example 2-33LP, 2-amino-N-[(R)-carbamoylphenylmethyl]-N-[(R)-6-chloroindan-1-yl]nicotinamide]	–	98
COc1ncccc1C(=O)N([C@@H]1CCc2c(F)cc(F)cc21)[C@@H](C(N)=O)c1ccccc1 [Example 2-36LP, N-[(R)-carbamoylphenylmethyl]-N-[(R)-4,6-difluoroindan-1-yl]-2-methoxynicotinamide]	74	–
COc1cc(F)c2c(c1)[C@H](N(C(=O)c1cccnc1)[C@@H](C(N)=O)c1ccccc1)CC2 [Example 2-39LP, N-[(R)-carbamoylphenylmethyl]-N-[(R)-4-fluoro-6-methoxyindan-1-yl]nicotinamide]	–	98
Cc1cc(F)c2c(c1)[C@H](N(C(=O)c1cccnc1)[C@@H](C(N)=O)c1ccccc1)CC2 [Example 2-40LP, N-[(R)-carbamoylphenylmethyl]-N-[(R)-4-fluoro-6-methylindan-1-yl]nicotinamide]	–	95
NC(=O)[C@@H](c1ccccc1)N(C(=O)c1cccnc1)[C@@H]1CCc2c(F)cccc21 [Example 2-56LP, N-[(R)-carbamoylphenylmethyl]-N-[(R)-4-fluoroindan-1-yl]nicotinamide]	–	50
NC(=O)[C@@H](c1ccccc1)N(C(=O)c1cncs1)[C@@H]1CCc2ccc(Cl)cc21 [Example 2-71LP, N-[(R)-carbamoylphenylmethyl]-N-[(R)-6-chloroindan-1-yl]thiazole-5-carboxamide]	–	83
NC(=O)[C@@H](c1cccnc1)N(C(=O)c1ccccc1)[C@@H]1CCc2c(F)cc(F)cc21 [Example 2-76LP, N-[(R)-carbamoylpyridin-3-ylmethyl]-N-[(R)-4,6-difluoroindan-1-yl]benzamide]	–	95
NC(=O)[C@@H](c1cccnc1)N(C(=O)c1ccccc1)[C@@H]1CCc2ccc(Cl)cc21 [Example 2-87LP, N-[(R)-carbamoylpyridin-3-ylmethyl]-N-[(R)-6-chloroindan-1-yl]benzamide]	36	–
Cc1ncsc1C(=O)N([C@@H]1CCc2ccc(Cl)cc21)[C@@H](C(N)=O)c1ccccc1 [Example 2-88LP, N-[(R)-carbamoylphenylmethyl]-N-[(R)-6-chloroindan-1-yl]-4-methylthiazole-5-carboxamide]	46	–
NC(=O)[C@@H](c1ccccc1)N(C(=O)c1cccnc1Cl)[C@@H]1CCc2c(F)cc(Cl)cc21 [Example 2-93LP, N-[(R)-carbamoylphenylmethyl]-2-chloro-N-[(R)-6-chloro-4-fluoroindan-1-yl]nicotinamide]	100	–
NC(=O)[C@@H](c1cccnc1)N(C(=O)c1ccccc1Cl)[C@@H]1CCc2c(F)cc(Cl)cc21 [Example 2-97LP, N-[(R)-carbamoylpyridin-3-ylmethyl]-2-chloro-N-[(R)-6-chloro-4-fluoroindan-1-yl]benzamide]	35	–
Cc1ccncc1C(=O)N([C@@H]1CCc2c(F)cc(Cl)cc21)[C@@H](C(N)=O)c1ccccc1 [Example 2-100LP, N-[(R)-carbamoylphenylmethyl]-N-[(R)-6-chloro-4-fluoroindan-1-yl]-4-methylnicotinamide]	47	–
CNc1ncccc1C(=O)N([C@@H]1CCc2c(F)cc(Cl)cc21)[C@@H](C(N)=O)c1ccccc1 [Example 2-107LP, N-[(R)-carbamoylphenylmethyl]-N-[(R)-6-chloro-4-fluoroindan-1-yl]-2-(methylamino)nicotinamide]	68	–

Further lines, results first:

% inhibition of Wet-Dog Shake (dose 3 mg/kg orally) [%]	% inhibition of Wet-Dog Shake (dose 10 mg/kg orally) [%]	Structure (SMILES)
31	–	NC(=O)[C@@H](c1ccccc1)N(C(=O)c1ccccc1)[C@@H]1COc2c(F)cc(Cl)cc21 (racemic) [Example 2-252M, N-[(RS)-carbamoylphenylmethyl]-N-[(SR)-5-chloro-7-fluoro-2,3-dihydrobenzofuran-3-yl]benzamide]
62	–	COc1ccccc1C(=O)N([C@@H]1CCc2c(F)cc(Cl)cc21)[C@@H](C(N)=O)c1cccnc1 [Example 2-118LP, N-[(R)-carbamoylpyridin-3-ylmethyl]-N-[(R)-6-chloro-4-fluoroindan-1-yl]-2-methoxybenzamide]
37	–	CSc1ncccc1C(=O)N([C@@H]1CCc2ccc(Cl)cc21)[C@@H](C(N)=O)c1ccccc1 [Example 2-125LP, N-[(R)-carbamoylphenylmethyl]-N-[(R)-6-chloroindan-1-yl]-2-(methylsulfanyl)nicotinamide]
65	–	CSc1ncccc1C(=O)N([C@@H]1CCc2c(F)cc(Cl)cc21)[C@@H](C(N)=O)c1ccccc1 [Example 2-128LP, N-[(R)-carbamoylphenylmethyl]-N-[(R)-6-chloro-4-fluoroindan-1-yl]-2-(methylsulfanyl)nicotinamide]
49	–	Cc1ncsc1C(=O)N([C@@H]1CCc2c(F)cc(F)cc21)[C@@H](C(N)=O)c1ccccc1 [Example 2-132LP, N-[(R)-carbamoylphenylmethyl]-N-[(R)-4,6-difluoroindan-1-yl]-4-methylthiazole-5-carboxamide]
55	–	Cn1nccc1C(=O)N([C@@H]1CCc2c(F)cc(Cl)cc21)[C@@H](C(N)=O)c1ccccc1 [Example 2-133LP, N-[(R)-carbamoylphenylmethyl]-N-[(R)-6-chloro-4-fluoroindan-1-yl]-2-methyl-2H-pyrazole-3-carboxamide]
53	–	Cc1ncccc1C(=O)N([C@@H]1CCc2ccc(Cl)cc21)[C@@H](C(N)=O)c1ccccc1 [Example 2-137LP, N-[(R)-carbamoylphenylmethyl]-N-[(R)-6-chloroindan-1-yl]-2-methylnicotinamide]
49	–	Cc1cnoc1C(=O)N([C@@H]1CCc2c(F)cc(Cl)cc21)[C@@H](C(N)=O)c1ccccc1 [Example 2-150LP, N-[(R)-carbamoylphenylmethyl]-N-[(R)-6-chloro-4-fluoroindan-1-yl]-4-methylisoxazole-5-carboxamide]
44	–	Cc1cccnc1C(=O)N([C@@H]1CCc2c(F)cc(Cl)cc21)[C@@H](C(N)=O)c1ccccc1 [Example 2-152LP, N-[(R)-carbamoylphenylmethyl]-N-[(R)-6-chloro-4-fluoroindan-1-yl]-3-methylpyridine-2-carboxamide]
36	–	Cc1ncncc1C(=O)N([C@@H]1CCc2c(F)cc(Cl)cc21)[C@@H](C(N)=O)c1ccccc1 [Example 2-154LP, N-[(R)-carbamoylphenylmethyl]-N-[(R)-6-chloro-4-fluoroindan-1-yl]-4-methylpyrimidine-5-carboxamide]
42	–	Cc1ncccc1C(=O)N([C@@H]1CCc2c(F)cc(Cl)cc21)[C@@H](C(N)=O)c1cccc(F)c1 [Example 2-161LP, N-[(R)-carbamoyl-(3-fluorophenyl)methyl]-N-[(R)-6-chloro-4-fluoroindan-1-yl]-2-methylnicotinamide]
64	–	Cc1cnccc1C(=O)N([C@@H]1CCc2c(F)cc(Cl)cc21)[C@@H](C(N)=O)c1ccccc1 [Example 2-167LP, N-[(R)-carbamoylphenylmethyl]-N-[(R)-6-chloro-4-fluoroindan-1-yl]-3-methylisonicotinamide]
36	–	Cc1ncccc1C(=O)N([C@@H]1CCc2c(F)cc(Cl)cc21)[C@@H](C(N)=O)c1cccc(O)c1 [Example 2-168LP, N-[(R)-carbamoyl-(3-hydroxyphenyl)methyl]-N-[(R)-6-chloro-4-fluoroindan-1-yl]-2-methylnicotinamide]
43	–	NC(=O)[C@@H](c1cccnc1)N(C(=O)c1cccc2c1OCO2)[C@@H]1CCc2c(F)cc(Cl)cc21 [Example 2-172LP, N-[(R)-carbamoylpyridin-3-ylmethyl]-N-[(R)-6-chloro-4-fluoroindan-1-yl]benzo[1,3]dioxole-4-carboxamide]
